Data as given in US12497409B2, “Crystal form of gonadotropin releasing hormone antagonist, preparation method therefor, and use thereof” (Shenzhen Rentai Pharmatech Ltd., priority 2019, dated 2025).
Values belong to the compound of their own block, whether it stands above or below them.

Experiments:
Type in all cases: physicochemical
[1] = Saturation solubility in water (HPLC); conditions: for Saturation solubility: in water, room temperature, stirred for 12 hours, excess solid, HPLC; for solubility, in words: saturation solubility, forms C and D compared with crystal form A
Description: Samples for test: a crystal form C and a crystal form D of a compound of a formula (I), their preparation methods being respectively shown in Example 1 and Example 2, a preparation method of the crystal form A of the compound of the formula (I) being shown in Comparative example 1.
Test method: the crystal form A, the crystal form C, and the crystal form D of the compound of the formula (I) were respectively taken, to measure their saturation solubility in water, a specific method was: a suitable amount of the samples for test were respectively taken, and put into a […] sample bottle, 3 ml of a water solution was added, the solid was excess, and the obtained solution was placed at room temperature and stirred for 12 hours, and solubility in water was measured by using an HPLC method. The operation conditions of HPLC are as follows:
instrument: high performance liquid chromatograph (model: Thermo U3000)
chromatographic column: Agilent C18 column (5 μm, 150 mm×4.6 mm)
mobile phase composition and gradient elution program: […]
Detection wavelength: 254.4 nm;
column temperature: 30° C.

[2] = Stability test (illumination, high temperature, high humidity; XRPD and HPLC purity); conditions: high humidity (25° C., 92.5% RH), 10 days
[3] = as above; conditions: for Initial purity (day 0): day 0, before stress, HPLC; for crystal transformation (XRPD): 10 days
Method: Illumination stability: samples of the crystal form C and the crystal form D of the compound of the formula (I) (respectively prepared in Example 1 and Example 2) were respectively taken and placed at 25° C. under an illumination condition of 4500 Lux for 10 days, and samples were taken respectively on day 5 and day 10 at fixed time points to determine XRPD patterns of the crystal forms C and D and the content of N-(4-(1-(2,6-difluorobenzyl)-5-((dimethylamino)methyl)-3-(6-methoxy-3-pyridazinyl)-2,4-dioxo-1,2,3,4-tetrahydrothieno[2,3-d]pyrimidin-6-yl)phenyl)-N′-methoxyurea in the crystal forms C and D, which were compared with those of the samples on day 0. High temperature stability: samples of the crystal form C and the crystal form D of the compound of the formula (I) (respectively prepared in Example 1 and Example 2) were respectively taken and placed at 60° C. for 10 days, and samples were taken respectively on day 5 and day 10 at fixed time points to determine XRPD patterns of the crystal forms C and D and the content of N-(4-(1-(2,6-difluorobenzyl)-5-((dimethylamino)methyl)-3-(6-methoxy-3-pyridazinyl)-2,4-dioxo-1,2,3,4-tetrahydrothieno[2,3-d]pyrimidin-6-yl)phenyl)-N′-methoxyurea in the crystal form C and the crystal form D, which were compared with those of the samples on day 0. High humidity stability: samples of the crystal form C and the crystal form D of the compound of the formula (I) (respectively prepared in Example 1 and Example 2) were respectively taken and placed at 40° C. at 75% RH for 10 days, and samples were taken respectively on day 5 and day 10 at fixed time points to determine XRPD patterns of the crystal forms C and D and the content of N-(4-(1-(2,6-difluorobenzyl)-5-((dimethylamino)methyl)-3-(6-methoxy-3-pyridazinyl)-2,4-dioxo-1,2,3,4-tetrahydrothieno[2,3-d]pyrimidin-6-yl)phenyl)-N′-methoxyurea in the crystal form C and the crystal form D, which were compared with those of the samples on day 0. A specific stability test method can refer to the method in appendix XI C of Part II of Chinese Pharmacopoeia (2015 edition); the purity detection adopts an HPLC method, and the purity can be determined by an external standard method with reference to the method in appendix VD of Chinese Pharmacopoeia (2015 edition) by using the samples on day 0 as a reference substance. instrument: high performance liquid chromatograph (model: Thermo U3000) chromatographic column: Agilent C18 column (5 μm, 150 mm×4.6 mm) mobile phase composition and gradient elution program: [table] detection wavelength: 254.4 nm; flow rate: 1 ml/min; sample size:15 μL; column temperature: 30° C.

[4] = Hygroscopicity test, dynamic vapor sorption (DVS); conditions: for hygroscopicity, in words: forms C and D compared with crystal form A
[5] = 25° C., 4500 Lux (illumination), listed as crystal form C
[6] = 40° C., 75% RH (high humidity), listed as crystal form C
[7] = 60° C. (high temperature), listed as crystal form C
[8] = 25° C., 4500 Lux (illumination), listed as crystal form D
[9] = 40° C., 75% RH (high humidity), listed as crystal form D
[10] = 60° C. (high temperature), listed as crystal form D

- Saturation solubility ([1]; listed as crystal form C): 101.75 µg/mL
- solubility, in words ([1]; listed as crystal form C): significantly improved
- crystal transformation (XRPD) [2]: no crystal transformation
- Purity change on day 10 [3, 5]: 0.49%
- Purity on day 5 [3, 5]: 98.99%
- Purity on day 10 [3, 5]: 98.84%
- Purity change on day 10 [3, 6]: 3.33%
- Purity on day 5 [3, 6]: 96.88%
- Purity on day 10 [3, 6]: 96%
- Purity change on day 10 [3, 7]: 2.58%
- Purity on day 5 [3, 7]: 97.89%
- Purity on day 10 [3, 7]: 96.75%
- Initial purity (day 0) ([3]; listed as crystal form C): 99.33%
- crystal transformation (XRPD) ([3]; high temperature (60° C.)): no crystal transformation
- crystal transformation (XRPD) ([3]; strong illumination (25° C., 4500 Lux)): no crystal transformation
- hygroscopicity, in words ([4]; listed as crystal form C): significantly decreased
Compound: CONC(=O)Nc1ccc(-c2sc3c(c2CN(C)C)c(=O)n(-c2ccc(OC)nn2)c(=O)n3Cc2c(F)cccc2F)cc1 [Crystal form C, N-(4-(1-(2,6-difluorobenzyl)-5-((dimethylamino)methyl)-3-(6-methoxy-3-pyridazinyl)-2,4-dioxo-1,2,3,4-tetrahydrothieno[2,3-d]pyrimidin-6-yl)phenyl)-N′-methoxyurea]

- Saturation solubility ([1]; listed as crystal form D): 87.21 µg/mL
- solubility, in words ([1]; listed as crystal form D): significantly improved
- Purity change on day 10 [3, 8]: 0.50%
- Purity on day 5 [3, 8]: 98.1%
- Purity on day 10 [3, 8]: 98.57%
- Purity change on day 10 [3, 9]: 1.86%
- Purity on day 5 [3, 9]: 97.88%
- Purity on day 10 [3, 9]: 97.21%
- Purity change on day 10 [3, 10]: 2.56%
- Purity on day 5 [3, 10]: 96.25%
- Purity on day 10 [3, 10]: 96.51%
- Initial purity (day 0) ([3]; listed as crystal form D): 99.07%
- hygroscopicity, in words ([4]; listed as crystal form D): significantly decreased
Compound: CONC(=O)Nc1ccc(-c2sc3c(c2CN(C)C)c(=O)n(-c2ccc(OC)nn2)c(=O)n3Cc2c(F)cccc2F)cc1 [Crystal form D, N-(4-(1-(2,6-difluorobenzyl)-5-((dimethylamino)methyl)-3-(6-methoxy-3-pyridazinyl)-2,4-dioxo-1,2,3,4-tetrahydrothieno[2,3-d]pyrimidin-6-yl)phenyl)-N′-methoxyurea]

- Saturation solubility [1]: 28.50 µg/mL
- solubility, in words ([1]; listed as crystal form A): low solubility
- moisture absorption (hygroscopy gain) ([4]; 25° C., humidity gradually increased from 0 to 50% RH): 0.57%
- hygroscopicity (hygroscopy gain) ([4]; 25° C., humidity gradually increased from 0 to 90% RH): 25.84%
- hygroscopicity, in words ([4]; listed as crystal form A): high hygroscopicity
Compound: CONC(=O)Nc1ccc(-c2sc3c(c2CN(C)C)c(=O)n(-c2ccc(OC)nn2)c(=O)n3Cc2c(F)cccc2F)cc1 [Crystal form A, N-(4-(1-(2,6-difluorobenzyl)-5-((dimethylamino)methyl)-3-(6-methoxy-3-pyridazinyl)-2,4-dioxo-1,2,3,4-tetrahydrothieno[2,3-d]pyrimidin-6-yl)phenyl)-N′-methoxyurea]
